{
  "source": "patent US8128963B2",
  "about": "“Methods for treating ischemic disorders using carbon monoxide” (The Trustees of Columbia University in the City Of New York, priority 1999, dated 2012)",
  "key": {"[1]": {"test_system": "mouse model of cerebral ischemia and reperfusion (stroke)", "assay_type": "in vivo", "method": "In stroke and other ischemic disorders, there may be clinical benefit derived by lysing an existing thrombus, but there is also the potentially devastating complication of hemorrhage. In the current experiments, the mouse model of cerebral ischemia and reperfusion (stroke) was used. […]\nMurine stroke model. Transient focal cerebral ischemia was induced in mice by intralumenal occlusion of the middle cerebral artery (45 minutes) and reperfusion (22 hrs) as previously reported ^7. Serial measurements of relative cerebral blood flow (CBF) were recorded via laser doppler flowmetry ^7, and infarct volumes (% ipsilateral hemisphere) determined by planimetric/volumetric analysis of triphenyl tetrazolium chloride (TTC)-stained serial cerebral sections ^7.\nPreparation of Factor IXai ^13: Factor IXai was prepared by selectively modifying the active site histidine residue on Factor IXa, using dansyl-glu-gly-arg-chloromethylketone. Proplex was applied to a preparative column containing immobilized calcium-dependent monoclonal antibody to Factor IX. […] Purified Factor IXa was reacted with a 100-fold molar excess of dansyl-glu-gly-arg chloromethylketone, and the mixture dialyzed. […] IXai was subsequently frozen into aliquots at −80° C. until the time of use. For those experiments in which IXai was used, it was given as a single intravenous bolus at the indicated times and at the indicated doses."}, "[2]": {"test_system": "platelet accumulation in ipsilateral hemisphere", "experiment": "111Indium-platelet accumulation in stroke", "assay_type": "in vivo, mouse", "details": "300 μg/kg prior to occlusion, vs vehicle", "method": "^111Indium-platelet studies: Platelet accumulation was determined using ^111Indium labeled platlets, collected and prepared as previously described ^8. Immediately prior to surgery, mice were given 5×10^6 111In-labeled-platelets intravenously; deposition was quantified after 24 hours by as ipsilateral cpm/contralateral cpm."}, "cross-linked fibrin": {"test_system": "cross-linked fibrin", "experiment": "Fibrin immunoblotting in stroke brain", "assay_type": "in vivo, mouse", "details": "300 μg/kg prior to stroke", "method": "Fibrin immunoblotting/immunostaining. The accumulation of fibrin was measured following sacrifice (of fully heparinized animals) using immunoblotting/immunostaining procedures which have been recently described and validated ^9. Because fibrin is extremely insoluble, brain tissue extracts where prepared by plasmin digestion, then applied to a standard SDS-polyacrylamide gel for electrophoresis, followed by immunoblotting using a polyclonal rabbit anti-human antibody prepared to gamma-gamma chain dimers present in cross-linked fibrin which can detect murine fibrin, with relatively little cross-reactivity with fibrinogen ^10. Fibrin accumulation was reported as an ipsilateral to contralateral ratic. In additional experiments, brains were embedded in paraffin, sectioned, and immunostained using the same anti-fibrin antibody."}, "intracerebral hemorrhage": {"test_system": "intracerebral hemorrhage", "assay_type": "in vivo, mouse", "method": "The hemoglobin content of brains subjected to the experimental procedures below was quantified using a spectrophotometric assay as follows. Whole brain tissue was obtained from freshly euthanized control or experimental animals, and each brain was treated individually as follows. Distilled water (250 μl) was added to each brain, followed by homogenization, for 30 sec (Brinkman Instruments, Inc., Westbury, N.Y.), sonification on ice with a pulse ultrasonicator for 1 minute (SmithKline Corporation, Collegeville, Pa.), and centrifugation at 13,000 rpm for 30 minutes (Baxter Scientific Products, Deerfield, Ill.). After collecting the hemoglobin-containing supernatant, 80 μl of Drabkin's reagent (purchased from Sigma Diagnostics, St. Louis, Mo; K3Fe(CN)6 200 mg/L, KCN 50 mg/L, NaHCO3 1 g/L, pH 8.6 ^25) was added to a 20 μl aliquot and allowed to stand for 15 minutes. This reaction converts hemoglobin to cyanomethemoglobin, which has an absorbance peak at 540 nm, and whose concentration can then be assesses by the optical density of the solution at ≈550 nm wavelength ^26. To validate that the measured absorbance following these procedures reflects the amount of hemoglobin, known quantities of bovine erythrocyte hemoglobin (Sigma, St. Louis, Mo.) were analyzed using similar procedures alongside every brain tissue assay. As an additional measure, blood was obtained from control mice by cardiac puncture following anesthesia. Incremental aliquots of this blood were then added to freshly homogenized brain tissue obtained from untreated mice to generate a standard absorbance curve.\nFocal cerebral ischemia was produced in animals by transient right middle cerebral artery occlusion using a method previously described in detail ^28,29. Briefly, a heat-blunted 12 or 13 mm 5-0 or 6-0 gauge nylon suture was passed into the right internal carotid artery to the level of the middle cerebral artery. After 45 minutes, the occluding suture was removed to reestablish perfusion. Immediately following removal of the occluding suture, animals received either intravenous tissue plasminogen activator (10 mg/kg in 0.2 ml normal saline solution, Stroke+rt-PA) or normal saline solution (Stroke+Saline) given by dorsal penile vein injection. At 24 hours, brain tissue was harvested immediately after rapid anesthetized decapitation. […] The other half of each brain was immersed in saline for an identical duration, and then subjected to the procedures described above for the spectrophotometric hemoglobin assay.\nThe degree of ICH was first scored visually by a blinded observer. […] Sections were inspected by a blinded observer and brains were given an ICH score from a graded scale based on maximal hemorrhage diameter seen on any of the sections [ICH score 0, no hemorrhage; 1, <1 mm; 2, 1-2 mm; 3, >2-3 mm; 4, >3 mm]. Slices from each brain were then pooled, homogenized, and then treated according to the procedures described above for the spectrophotometric hemoglobin assay.\nSpectrophotometric hemoglobin assay and visual ICH score: ICH was quantified by a spectrophotometric-based assay which we have developed and validated ^11,12. In brief, mouse brains were homogenized, sonicated, centrifuged, and methemoglobin in the supernatants converted (using Drabkin's reagent) to cyanomethemoglobin, the concentration of which was assessed by measuring O.D. at 550 nm against a standard curve generated with known amounts of hemoglobin. […]"}, "Protime and APTT in mice": {"experiment": "Protime and APTT in mice", "assay_type": "in vivo, mouse", "details": "300 μg/kg, n=7", "text": "The potency of Factor IXai as an anticoagulant agent stems from the integral role of activated Factor IX in the coagulation cascade."}, "Factor IXa": {"biological_target": "T1, Factor IXa (Homo sapiens, UniProt P00740)", "T1 construct": "made in house", "T1 sequence (P00740 227-461 limits assumed)": "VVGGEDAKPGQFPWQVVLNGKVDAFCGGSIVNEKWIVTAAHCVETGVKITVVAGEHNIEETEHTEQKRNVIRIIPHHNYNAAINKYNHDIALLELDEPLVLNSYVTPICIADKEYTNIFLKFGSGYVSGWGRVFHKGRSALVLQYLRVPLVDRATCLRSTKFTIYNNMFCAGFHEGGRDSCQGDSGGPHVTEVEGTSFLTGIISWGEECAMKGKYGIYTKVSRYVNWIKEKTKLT", "T1 sequence (P00740 47-191 partner limits assumed)": "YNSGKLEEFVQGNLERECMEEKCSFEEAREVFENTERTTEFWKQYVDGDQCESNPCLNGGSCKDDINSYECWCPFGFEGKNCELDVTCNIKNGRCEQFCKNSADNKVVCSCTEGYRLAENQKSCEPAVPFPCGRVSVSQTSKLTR", "experiment": "Procoagulant activity of the prepared Factor IXai", "assay_type": "biochemical", "details": "final product", "method": "Preparation of Factor IXai ^13: Factor IXai was prepared by selectively modifying the active site histidine residue on Factor IXa, using dansyl-glu-gly-arg-chloromethylketone. Proplex was applied to a preparative column containing immobilized calcium-dependent monoclonal antibody to Factor IX. The column was washed, eluted with EDTA-containing buffer, and Factor IX in the eluate (confirmed as a single band on SDS-PAGE) was then activated by applying Factor XIa (incubating in the presence of CaCl2). Purified Factor IXa was reacted with a 100-fold molar excess of dansyl-glu-gly-arg chloromethylketone, and the mixture dialyzed. […] This material (Factor IXai) was then used for experiments following filtration (0.2 μm) and chromatography on DeToxi-gel columns, to remove any trace endotoxin contamination (in sample aliquots, there was no detectable lipopolysaccharide). IXai was subsequently frozen into aliquots at −80° C. until the time of use. For those experiments in which IXai was used, it was given as a single intravenous bolus at the indicated times and at the indicated doses."}, "[3]": {"test_system": "left circumflex coronary artery occlusion", "details": "dogs; cited from earlier work"}, "mouse model of stroke": {"test_system": "mouse model of stroke", "experiment": "Mouse model of stroke, thrombolytic versus P-selectin antagonist", "details": "in vivo", "text": "The present invention provides for treatment of ischemic disorders by inhibiting the ability of the neutrophil, monocyte or other white blood cell to adhere properly. This may be accomplished removing the counter ligand, such as CD18. […] The endothelial cells on the surface of the vessels in the subject may also be a target for treatment. […] The present invention may be used in conjunction with a thrombolytic therapy to increase efficacy of such therapy or to enable lower doses of such therapy to be administered to the subject so as to reduce side effects of the thrombolytic therapy."}, "acute ischemic stroke": {"test_system": "acute ischemic stroke", "details": "within 7 hours of stroke onset; cited from earlier work"}, "stroke": {"test_system": "stroke", "details": "within 2 hours of stroke; cited from earlier work"}, "[4]": {"details": "300 μg/kg i.v. just prior to surgery, 24 hours"}, "[5]": {"details": "Table II, Experimental group mean"}},
  "note": "Entries after “also recorded” stand apart in the source; their conditions may differ.",
  "data": [
    {"substance": "Factor IXai: Factor IXa with active site histidine modified by dansyl-glu-gly-arg-chloromethylketone; competitive inhibitor of Factor IXa", "values": [
      {"measurement": "cerebral infarction volume", "setting": "[1]; 300 μg/kg given after MCA occlusion, following removal of the occluding suture, vs vehicle", "result": "significantly reduce cerebral infarction volumes"},
      {"measurement": "cerebral infarct volume", "setting": "[1]; 300 μg/kg i.v. immediately prior to stroke, vs controls", "result": "smaller infarct volumes; also recorded: reduce cerebral infarct volumes"},
      {"measurement": "mortality", "setting": "[1]; [4]", "result": "reduced mortality"},
      {"measurement": "neurological deficits", "setting": "[1]; [4]", "result": "less neurological deficits"},
      {"measurement": "inf vol", "setting": "[1]; [5]", "result": 3.47},
      {"measurement": "occ dop 1", "setting": "[1]; [5]", "result": 0.16},
      {"measurement": "occ dop 2", "setting": "[1]; [5]", "result": 0.43},
      {"measurement": "reper dop", "setting": "[1]; [5]", "result": 0.53},
      {"measurement": "sac dop", "setting": "[1]; Table II, Experimental group mean, at sacrifice", "result": 0.75},
      {"measurement": "dopp", "setting": "[1]; Table II, Experimental group mean, baseline relative doppler flow", "result": 1.04},
      {"measurement": "grade", "setting": "[1]; Table II, Experimental group mean, neurological grade", "result": 1.67},
      {"measurement": "optimal dose (infarct volume dose-response)", "setting": "[1]; doses 300, 600, 1200 μg/kg immediately prior to stroke", "result": 0.6, "unit": "mg/kg"},
      {"measurement": "I/C Ratio", "setting": "[1]; mouse, in vivo", "result": 1.08},
      {"measurement": "cerebral blood flow / perfusion at 24 hours", "setting": "[1]; mouse, in vivo, iv", "result": "improved cerebral perfusion; also recorded: significant increase in CBF"},
      {"measurement": "accumulation of radiolabelled platelets in the ipsilateral hemisphere", "setting": "[2]", "result": "significant reduction"},
      {"measurement": "ipsilateral accumulation of fibrin (immunoblot)", "setting": "cross-linked fibrin", "result": "no apparent increase"},
      {"measurement": "apparent intracerebral hemorrhage", "setting": "intracerebral hemorrhage; [4]", "result": "free of apparent intracerebral hemorrhage"},
      {"measurement": "ICH (spectrophotometric assay, corroborated by visual score)", "setting": "intracerebral hemorrhage; highest dose tested, 1200 μg/kg", "result": "increase in ICH"},
      {"measurement": "ICH (spectrophotometric hemoglobin assay)", "setting": "intracerebral hemorrhage; mouse, in vivo", "result": "no significant increase in ICH"},
      {"measurement": "APTT", "setting": "Protime and APTT in mice", "result": "79.9±8.9"},
      {"measurement": "PT (protime)", "setting": "Protime and APTT in mice", "result": "13.4±0.7"},
      {"measurement": "procoagulant activity", "setting": "Factor IXa", "result": "devoid of procoagulant activity"},
      {"measurement": "activated partial thromboplastin time (APTT)", "setting": "[3]", "result": "did not prolong"},
      {"measurement": "progressive coronary artery occlusion after electric current", "setting": "[3]", "result": "effective at preventing progressive coronary artery occlusion"}
    ]},
    {"substance": "rt-PA: recombinant human tissue plasminogen activator, Genentech", "values": [
      {"measurement": "increase of OD vs physiological saline solution", "setting": "intracerebral hemorrhage; i.v. after reperfusion, 10 mg/kg", "result": 1.8, "unit": "fold"},
      {"measurement": "visual ICH score", "setting": "intracerebral hemorrhage; stroke model, rt-PA after reperfusion", "result": "increase in the visual ICH score"},
      {"measurement": "hemorrhaging", "setting": "mouse model of stroke", "result": "some visible hemorrhaging"},
      {"measurement": "stroke disorder", "setting": "mouse model of stroke", "result": "improvement of the stroke disorder"},
      {"measurement": "rate of hemorrhagic conversion", "setting": "acute ischemic stroke", "result": "7-20%"},
      {"measurement": "reduction of infarct size", "setting": "stroke", "result": "up to 77%"}
    ]}
  ]
}
